In patent US7763585B2, “Methods for inhibiting tumor cell proliferation” (priority 2003, dated 2010):

Columns and labels:
[1] = tested on: Src-transformed NIH3T3 fibroblasts; assay: TUNEL staining for apoptosis, Src-transformed NIH3T3 fibroblasts; assay type: cell-based, mouse; conditions: 48 h treatment, FIG. 7
Experimental: FIG. 7 is a photograph showing induction of apoptosis by platinum complexes. Normal NIH3T3 fibroblasts and their v-Src-transformed counterparts were treated with platinum complexes for 48 h and analyzed for evidence of DNA damage using TUNEL staining kit.
(§1) Proliferating cells were counted by phase-contrast microscopy for viable cells (using trypan blue exclusion. TUNEL staining was carried according to supplier's instructions to detect apoptotic cells. Cells (NIH3T3 or NIH3T3/v-Src) were first treated with or without compounds 24-48 h prior to staining.
Studies have established a critical role for constitutive Stat3 signaling in the survival of transformed and tumor cells (Catlett-Falcone et al., 1999a; Grandis et al., 2000a; Epling-Burnette et al., 2001; Bowman et al., 2000b; Grandis et al., 2000b; Horiguchi et al., 2002). Effects of the subject platinum compounds on viability and survival of malignant cells were evaluated. To determine whether inhibition of persistently-active Stat3 by the subject compounds results in apoptosis, Src-transformed and normal mouse fibroblasts were treated with the subject platinum compounds and subjected to TUNEL staining for evidence of apoptosis.

[2] = tested on: normal mouse fibroblasts; assay: Cell proliferation ([3H]-thymidine incorporation) of normal mouse fibroblasts; assay type: cell-based; conditions: FIG. 6; reduction in growth rate but not growth inhibitory
Experimental: FIGS. 6A and 6B show the effects of platinum complexes on cell proliferation and viability. […] Values are the mean and S.D. of 3-4 independent determinations.
as §1
The effects of platinum complexes on cell proliferation measured by [^3H]-thymidine incorporation were investigated.

SMILES | Apoptosis (TUNEL staining) in Src-transformed NIH3T3 fibroblasts [1] | Growth of normal mouse fibroblasts ([3H]-thymidine incorporation) [2]
O=[N+]([O-])[Pt]1([Cl])([Cl])([Cl])[NH]CC[NH]1 [ISS CPA-1] | strong apoptosis | marginal effect
[NH2][Pt]([NH2])([Cl])([Cl])([Cl])[N+](=O)[O-] [ISS CPA-7] | strong apoptosis | marginal effect
